Measurements taken from PubChem BioAssay AID248 (DTP/NCI, 2004).
Inconclusive results and toxic doses are left out. No stated cut-off is given here; in the data, active means T/C of 150% or more; inactive means T/C below 125%.

System: L1210 leukemia ip in BDF1 mice, survival T/C
Test: NCI In Vivo Anticancer Drug Screen. Data for tumor model L1210 Leukemia (intraperitoneal) in B6D2F1 (BDF1) mice
Conditions: endpoint: mean survival time, higher = longer survival
Method in brief: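 Tumor was transplanted into mice, which were then dosed with test compound or vehicle alone. Survival was recorded for each group, and the treated figure was expressed relative to the control figure.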

[1] = dose: 50.0 mg/kg/injection, schedule: Q01DX009 (ip), vehicle: saline
[2] = dose: 100.0 mg/kg/injection, schedule: Q01DX001 (ip), vehicle: Klucel (hydroxypropylcellulose) (HPC)
[3] = dose: 200.0 mg/kg/injection, schedule: Q01DX001 (ip), vehicle: Klucel (hydroxypropylcellulose) (HPC)

Measured: T/C

COc1nc(=S)n2[nH]cnc2n1
inactive: dose: 12.5 mg/kg/injection, schedule: Q01DX009 (ip), vehicle: saline 89 % of control | dose: 25.0 mg/kg/injection, schedule: Q01DX009 (ip), vehicle: saline 94 % of control | [1] 109 % of control | dose: 50.0 mg/kg/injection, schedule: Q04DX003 (ip), vehicle: saline 102 % of control | dose: 100.0 mg/kg/injection, schedule: Q04DX003 (ip), vehicle: saline 91 % of control | dose: 200.0 mg/kg/injection, schedule: Q04DX003 (ip), vehicle: saline 92 % of control

O=C(c1ccccc1)C(Nc1ccc(Br)cc1)Nc1ccc(Br)cc1
inactive: dose: 100.0 mg/kg/injection, schedule: Q01DX001 (ip), vehicle: carboxymethylcellulose (CMC) 96 % of control | dose: 200.0 mg/kg/injection, schedule: Q01DX001 (ip), vehicle: carboxymethylcellulose (CMC) 102 % of control | dose: 400.0 mg/kg/injection, schedule: Q01DX001 (ip), vehicle: carboxymethylcellulose (CMC) 96 % of control

O=C(OCC(OC(=O)c1ccccc1)C1OCOC2COCOC21)c1ccccc1 (centres undefined)
inactive: [2] 101 % of control | [3] 101 % of control | dose: 400.0 mg/kg/injection, schedule: Q01DX001 (ip), vehicle: Klucel (hydroxypropylcellulose) (HPC) 97 % of control

CCCCOP(=O)(OCCCC)N1CCCCC1
inactive: dose: 25.0 mg/kg/injection, schedule: Q04DX002 (ip), vehicle: saline with Tween-80 94 % of control | dose: 50.0 mg/kg/injection, schedule: Q04DX002 (ip), vehicle: saline with Tween-80 108 % of control | dose: 100.0 mg/kg/injection, schedule: Q04DX002 (ip), vehicle: saline with Tween-80 91 % of control

c1ccc2cc3c(ccc4cccc[n+]43)cc2c1
inactive: dose: 50.0 mg/kg/injection, schedule: Q01DX001 (ip), vehicle: saline 119 % of control

S=c1nc2ccccn2c(=S)n1-c1ccccn1
inactive: dose: 100.0 mg/kg/injection, schedule: Q01DX001 (ip), vehicle: saline with Tween-80 106 % of control | dose: 200.0 mg/kg/injection, schedule: Q01DX001 (ip), vehicle: saline with Tween-80 100 % of control

O=C(O)c1cc(Br)c2ccccc2c1O
inactive: dose: 25.0 mg/kg/injection, schedule: Q01DX009 (ip), vehicle: saline sonified 103 % of control | dose: 50.0 mg/kg/injection, schedule: Q01DX009 (ip), vehicle: saline sonified 108 % of control | dose: 100.0 mg/kg/injection, schedule: Q01DX009 (ip), vehicle: saline sonified 100 % of control | dose: 100.0 mg/kg/injection, schedule: Q04DX003 (ip), vehicle: Klucel (hydroxypropylcellulose) (HPC) 104 % of control

COC(=O)C1CC(C2c3ccccc3-c3ccccc32)CCC1N (centres undefined)
inactive: dose: 200.0 mg/kg/injection, schedule: Q04DX003 (ip), vehicle: saline with Tween-80 100 % of control

Cn1ncc(=O)[nH]c1=O
inactive: [1] 100 % of control | dose: 100.0 mg/kg/injection, schedule: Q01DX009 (ip), vehicle: saline 108 % of control | dose: 200.0 mg/kg/injection, schedule: Q01DX009 (ip), vehicle: saline 103 % of control

COc1ccccc1N=Nc1c(O)n(-c2ccc(C)cc2)c(=S)n(-c2ccc(C)cc2)c1=O
inactive: dose: 50.0 mg/kg/injection, schedule: Q01DX001 (ip), vehicle: Klucel (hydroxypropylcellulose) (HPC) 86 % of control | [2] 89 % of control | [3] 102 % of control

CN1CCCCC1C[CH2][Sn]([c]1ccccc1)([c]1ccccc1)[c]1ccccc1 (centres undefined)
inactive: dose: 3.12 mg/kg/injection, schedule: Q01DX009 (ip), vehicle: Klucel (hydroxypropylcellulose) (HPC) 90 % of control | dose: 6.25 mg/kg/injection, schedule: Q01DX009 (ip), vehicle: Klucel (hydroxypropylcellulose) (HPC) 90 % of control | dose: 12.5 mg/kg/injection, schedule: Q01DX009 (ip), vehicle: Klucel (hydroxypropylcellulose) (HPC) 92 % of control | dose: 12.5 mg/kg/injection, schedule: Q04DX002 (ip), vehicle: Klucel (hydroxypropylcellulose) (HPC) 93 % of control | dose: 25.0 mg/kg/injection, schedule: Q04DX002 (ip), vehicle: Klucel (hydroxypropylcellulose) (HPC) 96 % of control
